Structures can show the parent of a compound that is named as a salt.
What was measured:
[1] = target: T1, 5-hydroxytryptamine receptor 3A (Rattus norvegicus, UniProt P35563)
T1 sequence (P35563 whole entry): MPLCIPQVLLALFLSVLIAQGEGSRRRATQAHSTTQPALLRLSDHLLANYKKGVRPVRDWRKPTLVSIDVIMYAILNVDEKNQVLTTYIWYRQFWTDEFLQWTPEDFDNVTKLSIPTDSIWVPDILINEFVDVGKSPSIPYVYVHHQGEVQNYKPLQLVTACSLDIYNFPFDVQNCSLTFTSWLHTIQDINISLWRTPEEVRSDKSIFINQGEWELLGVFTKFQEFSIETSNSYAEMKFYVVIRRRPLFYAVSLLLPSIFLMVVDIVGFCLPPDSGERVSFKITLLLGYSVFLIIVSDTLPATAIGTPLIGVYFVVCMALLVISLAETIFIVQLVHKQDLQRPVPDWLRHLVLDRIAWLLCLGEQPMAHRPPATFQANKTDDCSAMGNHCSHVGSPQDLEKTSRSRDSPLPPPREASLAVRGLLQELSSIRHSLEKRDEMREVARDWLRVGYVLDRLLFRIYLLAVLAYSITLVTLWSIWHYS

[2] = target: Beta-arrestin-2 (Bos taurus, UniProt P32120)
Chain of Beta-arrestin-2 (P32120 whole entry): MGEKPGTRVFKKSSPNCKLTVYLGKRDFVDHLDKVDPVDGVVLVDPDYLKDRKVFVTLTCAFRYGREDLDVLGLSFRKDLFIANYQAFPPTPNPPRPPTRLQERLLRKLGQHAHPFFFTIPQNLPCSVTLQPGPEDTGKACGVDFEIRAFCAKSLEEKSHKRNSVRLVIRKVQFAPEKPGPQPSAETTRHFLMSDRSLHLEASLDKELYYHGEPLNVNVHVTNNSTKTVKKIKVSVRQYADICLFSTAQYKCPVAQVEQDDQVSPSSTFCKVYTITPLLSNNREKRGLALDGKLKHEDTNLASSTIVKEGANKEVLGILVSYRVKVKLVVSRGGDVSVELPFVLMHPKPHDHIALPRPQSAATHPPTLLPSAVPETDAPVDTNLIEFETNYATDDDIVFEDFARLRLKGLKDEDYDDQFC

[3] = target: 5-hydroxytryptamine receptor 1B (Rattus norvegicus, UniProt P28564)
Chain of 5-hydroxytryptamine receptor 1B (P28564 whole entry): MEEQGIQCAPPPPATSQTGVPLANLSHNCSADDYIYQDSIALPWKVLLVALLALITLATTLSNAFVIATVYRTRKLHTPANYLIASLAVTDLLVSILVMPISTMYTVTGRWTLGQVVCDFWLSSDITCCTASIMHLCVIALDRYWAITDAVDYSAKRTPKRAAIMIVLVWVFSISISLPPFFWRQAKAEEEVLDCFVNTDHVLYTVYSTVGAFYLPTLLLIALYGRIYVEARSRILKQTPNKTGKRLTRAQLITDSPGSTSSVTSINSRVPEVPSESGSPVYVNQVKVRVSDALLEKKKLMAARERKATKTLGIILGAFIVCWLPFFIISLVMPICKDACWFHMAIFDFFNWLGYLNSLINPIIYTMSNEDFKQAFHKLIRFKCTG

[4] = target: 5-hydroxytryptamine 1D receptor (Bos taurus, UniProt Q8MI13)
Chain of 5-hydroxytryptamine 1D receptor (Q8MI13 whole entry): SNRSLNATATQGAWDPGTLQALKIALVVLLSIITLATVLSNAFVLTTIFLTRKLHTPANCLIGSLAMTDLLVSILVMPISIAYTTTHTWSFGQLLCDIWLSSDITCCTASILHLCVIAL

[5] = target: T2, 5-hydroxytryptamine receptor 1A (Rattus norvegicus, UniProt P19327)
T2 sequence (P19327 whole entry): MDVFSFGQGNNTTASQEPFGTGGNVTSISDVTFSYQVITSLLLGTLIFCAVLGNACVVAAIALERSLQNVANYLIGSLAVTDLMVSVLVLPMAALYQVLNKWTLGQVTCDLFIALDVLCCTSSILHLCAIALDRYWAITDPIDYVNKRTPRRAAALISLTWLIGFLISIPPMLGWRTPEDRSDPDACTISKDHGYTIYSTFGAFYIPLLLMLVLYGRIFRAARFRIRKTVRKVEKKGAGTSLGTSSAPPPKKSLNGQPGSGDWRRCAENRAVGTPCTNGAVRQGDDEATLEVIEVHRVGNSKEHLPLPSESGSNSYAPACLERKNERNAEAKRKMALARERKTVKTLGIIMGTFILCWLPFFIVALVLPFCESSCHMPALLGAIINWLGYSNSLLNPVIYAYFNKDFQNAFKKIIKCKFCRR

[6] = target: 5-hydroxytryptamine receptor 2A (Rattus norvegicus, UniProt P14842)
Chain of 5-hydroxytryptamine receptor 2A (P14842 whole entry): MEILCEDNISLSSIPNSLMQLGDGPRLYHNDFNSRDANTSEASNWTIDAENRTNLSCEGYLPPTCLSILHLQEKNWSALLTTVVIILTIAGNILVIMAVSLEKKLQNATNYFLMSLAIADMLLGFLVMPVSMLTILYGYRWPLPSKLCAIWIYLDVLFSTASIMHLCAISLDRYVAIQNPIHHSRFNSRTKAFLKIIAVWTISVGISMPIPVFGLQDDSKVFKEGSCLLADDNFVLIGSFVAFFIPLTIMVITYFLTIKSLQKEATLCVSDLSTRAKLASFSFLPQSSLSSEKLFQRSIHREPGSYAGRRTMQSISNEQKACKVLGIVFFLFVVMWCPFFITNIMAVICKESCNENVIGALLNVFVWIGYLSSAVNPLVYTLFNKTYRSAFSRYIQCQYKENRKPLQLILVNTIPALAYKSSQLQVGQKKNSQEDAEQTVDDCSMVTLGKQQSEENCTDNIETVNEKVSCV

Compound | Ki [1] | Ki [2] | Ki [3] | Ki [4] | Ki [5] | Ki [6]
Fc1ccc([C@@H]2CCNC[C@H]2COc2ccc3c(c2)OCO3)cc1 [PAROXETINE] | 2.63 µM | > 10 µM | > 10 µM | 4.9 µM | > 10 µM | –
CNCC[C@@H](Oc1ccc(C(F)(F)F)cc1)c1ccccc1 [(3R)-N-methyl-3-phenyl-3-[4-(trifluoromethyl)phenoxy]propan-1-amine] | – | 3.63 µM | – | 3.89 µM | – | –
COc1ccc(OC[C@H]2CN(C)CC[C@@H]2c2ccccc2)cc1 [(3R,4S)-3-(4-Methoxy-phenoxymethyl)-1-methyl-4-phenyl-piperidine] | > 10 µM | 1.91 µM | 9.33 µM | 3.72 µM | 3.16 µM | 0.407 µM
CNCC[C@@H](Oc1ccc(C(F)(F)F)cc1)c1ccccc1 [Prozac] | – | 0.269 µM | – | 4.27 µM | – | –
c1ccc2c(CCC3CCNCC3)c[nH]c2c1 | 3.24 µM | 3.24 µM | 4.47 µM | 3.63 µM | 9.12 µM | 0.794 µM
CNCC[C@@H](Oc1ccc(C(F)(F)F)cc1)c1ccccc1 [Fluoxetine-R-(-)] | – | 0.155 µM | – | > 10 µM | – | –
CN(C)CCCC1(c2ccc(F)cc2)OCc2cc(C#N)ccc21 (configuration not stated) [CITALOPRAM HYDROBROMIDE] | > 10 µM | 3.31 µM | > 10 µM | > 10 µM | – | –

Source: BindingDB's records for PubMed 1930610 (Eli Lilly, 1991)
